How the values were obtained:
A549 cells [1] = assay: Inhibition of LPS-induced inflammatory cytokine gene expression, RT-PCR, A549 cells; format: cell-based, human; settings: 5 μg/ml LPS, peptide 10, 50, 100, 500 μM, 3 hours, RT-PCR (FIG. 2)
Description: A549 cells (human alveolar basal epithelial cells) were seeded at 3×10^5 cells/well in a 6-well plate and used in the experiment. After culturing for 1 day with a culture medium containing 10% FBS, the culture medium was replaced with a culture medium without containing FBS to induce starvation for 4 hours. A normal group without being treated with any substances, a group treated with 5 μg/ml of LPS (Sigma Aldrich) (negative control group), groups treated with 5 μg/ml of LPS and the peptide of Production Example 1 (10, 50, 100, 500 μM), and a group treated with 5 μg/ml of LPS and 10 μM of Dexamethasone (DEX) (positive control group) were treated with active substances and drugs respectively, and then RNA was extracted after 3 hours to carry out RT-PCR. RNA was extracted from the A549 cells in the above-described treatment group using an easy-BLUE™ Total RNA extraction kit (Qiagen, Germany). The extracted RNA was converted into cDNA with RT-PCR premix (iNtRON Biotechnology, Seongnam, Korea). After preparing a reaction mixture with PCR premix (iNtRON Biotechnology, Seongnam, Korea) and primers for each gene, PCR was carried out using a PCR machine (Eppendorf, Germany). Next, the mRNA expression pattern was determined by agarose gel electrophoresis. The base sequences of the primers used in the experiment are listed in [Table 2] below.

MRC-5 cells [2] = assay: ELISA of LPS-induced IL-6 and IL-8, MRC-5 cells; format: cell-based; settings: 5 μg/ml LPS, peptide 10, 50, 100, 500 μM, 72 hours, culture supernatant (FIG. 5a, 5b)
Description: MRC-5 cells (lung fibroblast cells) were seeded at 2×10^5 cells/well in a 12-well plate and used in the experiment. After culturing for 1 day with a culture medium containing 10% FBS, the culture medium was replaced with a culture medium without containing FBS to induce starvation for 4 hours. Cells of a normal group without being treated with any substances, a group treated with 5 μg/ml of LPS (Sigma Aldrich) (negative control group), groups treated with 5 μg/ml of LPS and the peptide of Production Example 1 (10, 50, 100, 500 μM), and a group treated with 5 μg/ml of LPS and 10μM of Dexamethasone (DEX) (positive control group) were treated with active substances and drugs respectively and then cultured for 72 hours. After cell culture, the supernatant obtained by centrifuging the culture solution at 4° C. and 3,000 rpm for 10 minutes was subjected to ELISA analysis using an IL-6 Quantikine ELISA Kit (R&D systems) and an IL-8 Quantikine ELISA kit (R&D systems) according to the method of use in the kit instructions, and then the absorbance was measured at 450 nm using a microplate reader.

A549 cells [3] = assay: ELISA of inflammatory cytokine proteins induced by IL-1β, A549 cells; format: cell-based, human; settings: IL-1β 2 ng/ml, peptide 10, 50, 100, 500 μM, 72 hours, culture supernatant (FIG. 9a-9c)
Description: A549 cells (human alveolar basal epithelial cells) were seeded at 2×10^5 cells/well in a 12-well plate and used in the experiment. After culturing for 1 day with a culture medium containing 10% FBS, the culture medium was replaced with a culture medium without containing FBS to induce starvation for 4 hours. Cells of a normal group (NON) without being treated with any substances, a group treated with IL-1β (2 ng/ml) (negative control group, NC), groups treated with IL-1β (2 ng/ml) and the peptide of Production Example 1 (10, 50, 100, 500 μM), and a group treated with IL-1β (2 ng/ml) and Dexamethasone (DEX) (10 μM) (positive control group) were treated with active substances and drugs respectively, and then cultured for 72 hours. After cell culture, the supernatant obtained by centrifuging the culture solution at 4° C. and 3,000 rpm for 10 minutes was subjected to ELISA analysis using an IL-6 Quantikine ELISA Kit (R&D systems), an IL-8 Quantikine ELISA Kit (R&D systems), and an IL-1β Quantikine ELISA Kit (R&D systems) according to the method of use in the kit instructions, and then the absorbance was measured at 450 nm using a microplate reader.

MRC-5 cells [4] = assay: Inhibition of fibrosis gene expression induced by TGF-β1, RT-PCR, MRC-5 cells; format: cell-based; settings: 5 ng/ml TGF-β1, peptide 10, 50, 100, 500 μM, 3 hours, RT-PCR (FIG. 7)
Description: MRC-5 cells (lung fibroblast cells) were seeded at 2×10^5 cells/well in a 12-well plate and used in the experiment. After culturing for 1 day with a culture medium containing 10% FBS, the culture medium was replaced with a culture medium without containing FBS to induce starvation for 4 hours. Cells of a normal group without being treated with any substances, a group treated with 5 ng/ml of TGF-β1 (negative control group), groups treated with 5 ng/ml of TGF-β1 and the peptide of Production Example 1 (10, 50, 100, 500 μM), and a group treated with 5 μg/ml of LPS and 10 μM of Dexamethasone (DEX) (positive control group) were treated with the above-described active substances and drugs, and then RNA was extracted after 3 hours to carry out RT-PCR. RNA was extracted from MRC-5 cells using an easy-BLUE™ Total RNA extraction kit (Qiagen, Germany). The extracted RNA was converted into cDNA using RT-PCR premix (iNtRON Biotechnology, Seongnam, Korea). After preparing a reaction mixture with PCR premix (iNtRON Biotechnology, Seongnam, Korea) and primers for each gene, PCR was carried out using a PCR machine (Eppendorf, Germany). Next, the mRNA expression pattern was determined by agarose gel electrophoresis.

In the case of “KYLLVHRPYYRR [peptide of Production Example 1]”, the “gene expression of COX-2” value (A549 cells [1]) is reported as “decreases in a concentration-dependent manner”, the “gene expression of IL-1β” value (A549 cells [1]) is reported as “decreases in a concentration-dependent manner” and the “gene expression of IL-6” value (A549 cells [1]) is reported as “decreases in a concentration-dependent manner”. The “gene expression of IL-8” value (A549 cells [1]) was “decreases in a concentration-dependent manner”, the “gene expression of TNF-α” value (A549 cells [1]) was “decreases in a concentration-dependent manner” and the “expression level of IL-6 (ELISA)” value (MRC-5 cells [2]) was “decreased the expression levels of IL-6 and IL-8 in a concentration-dependent manner”. The “expression level of IL-8 (ELISA)” value (MRC-5 cells [2]) was “decreased the expression levels of IL-6 and IL-8 in a concentration-dependent manner”, the “expression level of IL-1β (ELISA)” value (A549 cells [3]) was “decreases the expression levels of IL-1B, IL-6, and IL-8 in a concentration-dependent manner” and the “expression level of IL-6 (ELISA)” value (A549 cells [3]) was “decreases the expression levels of IL-1B, IL-6, and IL-8 in a concentration-dependent manner”. The “expression level of IL-8 (ELISA)” value (A549 cells [3]) was “decreases the expression levels of IL-1B, IL-6, and IL-8 in a concentration-dependent manner”, the “expression of Collagen 1A1 gene” value (MRC-5 cells [4]) was “decreased the expression of genes in a concentration-dependent manner” and the “expression of Fibronectin 1 gene” value (MRC-5 cells [4]) was “decreased the expression of genes in a concentration-dependent manner”. The “expression of Tenascin C gene” value (MRC-5 cells [4]) was “decreased the expression of genes in a concentration-dependent manner” and the “expression of α-SMA gene” value (MRC-5 cells [4]) was “decreased the expression of genes in a concentration-dependent manner”.

— US20250213649A1, “PEPTIDE HAVING ANTI-INFLAMMATORY AND ANTI-FIBROTIC ACTIVITIES AND USE THEREOF” (CAREGEN CO., LTD., priority 2022, published 2025)
